From publication PMC5843698, “Use of QSPR Modeling to Characterize In Vitro Binding of Drugs to a Gut-Restricted Polymer” (Pharmaceutical Research, 2018)
Entries after “also recorded” stand apart in the source; their conditions may differ. Structures can show the parent of a compound that is named as a salt.

Columns and labels:
[1] = In vitro binding assay: free test drug recovered after 3 h incubation with and without patiromer in SGF, acetate buffer or SIF; conditions: for SGF / SIF / AB: QSPR input data; for SGF: test matrix SGF; for SIF: test matrix SIF; for AB: test matrix acetate buffer (AB); for In Vitro Binding (% Drug Recovered) Acetate Buffer (pH 4.5) / In Vitro Binding (% Drug Recovered) SGF (pH 3) / In Vitro Binding (% Drug Recovered) SIF (pH 5.9): patiromer 25.2 g/L, 3 h, 37°C, geometric mean of 12 replicates; for In Vitro Binding (% Drug Recovered) SGF (pH 3): simulated gastric fluid, final pH 3.0; for In Vitro Binding (% Drug Recovered) SIF (pH 5.9): simulated intestinal fluid, final pH 5.9; for In vitro patiromer binding category: strong, weak or non-binding
[2] = Dose-response in vitro patiromer binding across a range of test drug concentrations; conditions: across a clinically relevant dose range
[3] = test drug given together with patiromer, healthy volunteers; a drug listed in the table cell = AUC reduced; cited from earlier work
[4] = logP determination by titration in octanol/water; conditions: octanol/water
[5] = pKa determination by titration in aqueous solution (UV or pH monitored); conditions: aqueous solution, pKa (B = base), basic group; average of three determinations
[6] = logD determination (liquid-liquid distribution chromatography, octanol-coated column); conditions: octanol-coated column with octanol-saturated mobile phase

## COc1cc(Cc2cnc(N)nc2N)cc(OC)c1OC [Trimethoprim]
[1]
  SGF: 36.3
  SIF: 28.4
  AB: 55.3
  In Vitro Binding (% Drug Recovered) Acetate Buffer (pH 4.5): 55.3%
  In Vitro Binding (% Drug Recovered) SGF (pH 3): 36.3%
  In Vitro Binding (% Drug Recovered) SIF (pH 5.9): 28.4%
  In vitro patiromer binding category: strong binders
[2]
  Concentration dependence of in vitro binding to patiromer: did not show strong concentration dependence

## N[C@@H](Cc1cc(I)c(Oc2cc(I)c(O)c(I)c2)c(I)c1)C(=O)O [Levothyroxine sodium]
[3]
  AUC reduced when co-administration (lower bound of the 90% CI <80%): Ciprofloxacin, 500 mg Levothyroxine, 0.6 mg
[1]; in vitro binding assay conditions
  Behaviour of drug in the presence of patiromer and its calcium counter-ion: precipitated in the presence of patiromer and its calcium counter-ion
[4]
  logP: 3.44
[5]
  pKa: 8.73
[6]; pH 3
  chromatographic logD: 3.44
[6]; pH 4.5
  chromatographic logD: 3.44
[6]; pH 5.9
  chromatographic logD: 3.37

## CN(C)C(=N)N=C(N)N [Metformin HCl]
[3]
  AUC reduced when co-administration (lower bound of the 90% CI <80%): moderate reduction in AUC; also recorded: Metformin, 1000 mg
[1]
  SGF: 48.9
  SIF: 80.2
  AB: 81.8
  In Vitro Binding (% Drug Recovered) Acetate Buffer (pH 4.5): 81.8%
  In Vitro Binding (% Drug Recovered) SGF (pH 3): 48.9%
  In Vitro Binding (% Drug Recovered) SIF (pH 5.9): 80.2%
  In vitro patiromer binding category: weak binder
[1]; across SGF, AB and SIF test matrices
  Binding categories (level of in vitro interaction with patiromer): Weak binder (30–55% bound in one test matrix)

## C=C[C@H]1C[N@@]2CC[C@H]1C[C@@H]2[C@@H](O)c1ccnc2ccc(OC)cc12 [Quinidine]
[1]
  SGF: 12.6
  SIF: 24.3
  In Vitro Binding (% Drug Recovered) SGF (pH 3): 12.6%
  In Vitro Binding (% Drug Recovered) SIF (pH 5.9): 24.3%
  In vitro patiromer binding category: strong binders
[2]
  Concentration dependence of in vitro binding to patiromer: did not show strong concentration dependence
